Results as given in paper PMC7760690, “Neuroprotective Metabolites from Vietnamese Marine Derived Fungi of Aspergillus and Penicillium Genera” (Marine Drugs, 2020).

How the values were obtained:
MTT cytotoxicity assay = type: cell-based, murine; conditions: mouse, Neuro-2a neuroblastoma cells; Neuro-2a cells, MTT
Description: (§1) The murine neuroblastoma cell line Neuro-2a was purchased from ATCC.
(§2) Neuro-2a cells were cultured in DMEM medium containing 10% fetal bovine serum (Biolot, St. Petersburg, Russia) and 1% penicillin/streptomycin (Biolot, St. Petersburg, Russia). Cells were incubated at 37 °C in a humidified atmosphere containing 5% (v/v) CO2 [71].
The in vitro cytotoxicity of the individual substances was evaluated using an MTT (3-(4,5-dimethylthiazol-2-yl)-2,5-diphenyltetrazolium bromide) assay, which was performed according to the manufacturer’s instructions (Sigma-Aldrich, USA). Absorbance of the converted formazan was measured using a Multiskan FC plate photometer (Thermo Scientific, Waltham, MA, USA) at λ = 570 nm. The results were presented as percent of control data, and concentration of cell viability inhibition on 50% (IC50) was calculated.

[1] = DPPH radical scavenger assay; conditions: for EC50 / DPPH Radical Scavenging 100 µM % of MeOH: 30 min; for EC50: MeOH, read-out: DPPH Radical Scavenging EC50; for DPPH Radical Scavenging 100 µM % of MeOH: compound 100 µM, absorbance 520 nm
Description: The DPPH radical scavenging activities of the compounds were tested as described.
The compounds were dissolved in MeOH, and the solutions (120 µL) were dispensed into wells of a 96-well microplate. In all, 30 µL of the DPPH (Sigma-Aldrich, Steinheim, Germany) solution in MeOH (7.5 × 10^−3 M) was added to each well. The concentrations of the test compounds in the mixtures were 10 and 100 µM. The mixtures were shaken and left to stand for 30 min, and the absorbance of the resulting solutions was measured at 520 nm with a microplate reader MultiscanFC (ThermoScientific, Waltham, MA, USA). The concentration scavenging 50% of the DPPH radical (EC50) was calculated for each investigated compound.

[2] = system: Neuro-2a cells treated with 6-OHDA; assay: 6-OHDA-induced PD cell model, cell viability (MTT); type: cell-based, murine; conditions: compounds 6-12 at 1 µM; 6-OHDA 50 µM
Description: as §1, §2
(§3) The neuroblastoma Neuro-2a line cells (1 × 10^4 cells/well) were treated with the test compounds at concentrations of 1 and/or 10 µM for 1 h, and then the neurotoxins were added to the neuroblastoma cell suspensions. Rotenone (Sigma-Aldrich, USA) was used at the concentration of 10 µM. Paraquat (Sigma-Aldrich, USA) was used at 500 µM. 6-Hydroxydopamine (Sigma-Aldrich, USA) was used at 50 µM. Cells incubated without neurotoxins and the test compounds and cells incubated with neurotoxins only were used as positive and negative controls, respectively. After 24 h of incubation, the cell viabilities were measured using the MTT method. The results are presented as the percent of positive control data.

[3] = system: PQ-treated Neuro-2a cells; assay: Paraquat-induced PD cell model, cell viability (MTT); type: cell-based, murine
Description: as §1, §2, §3

[4] = system: rotenone-treated Neuro-2a cells; assay: Rotenone-induced PD cell model, cell viability (MTT); type: cell-based, murine
Description: as §1, §2, §3

[5] = system: 6-OHDA-treated Neuro-2a cells; assay: ROS level in 6-OHDA-treated cells (H2DCFDA); type: cell-based, murine
Description: as §1, §2
(§4) The cells (1 × 10^4 cells/well of a 96-well plate) were incubated with compound solutions (10 µM) during 1 h. Then, 6-OHDA/PQ/rotenone were added to cell suspension to resulting concentration of 50 µM, 500 µM and 10 µM respectively for incubation during 1 h. Cells incubated without neurotoxins and compounds and with neurotoxins alone were used as positive and negative controls, respectively. The 20 µL of 2,7-dichlorodihydrofluorescein diacetate solution (H2DCFDA, Molecular Probes, Eugene, OR, USA) was added to each well (10 µM, final concentration) and the plate was incubated for an additional 10 min at 37 °C. The intensity of dichlorofluorescein fluorescence was measured with PHERAstar FS plate reader (BMG Labtech, Ortenberg, Germany) at λex = 485 nm and λem = 518 nm. The data were processed by MARS Data Analysis v. 3.01R2 (BMG Labtech, Germany). The results were presented as the percent of positive control data.

[6] = system: PQ-treated Neuro-2a cells; assay: ROS level in PQ-treated cells (H2DCFDA); type: cell-based, murine
Description: as §1, §2
as §4, with “The cells (1 × 10^4 cells/well of a 96-well plate) were incubated with compound solutions (10 µM) during 1 h.” left out

[7] = system: rotenone-treated Neuro-2a cells; assay: ROS level in rotenone-treated cells (H2DCFDA); type: cell-based, murine
Description: as §1, §2, §4

[8] = no exact data published; cited from earlier work
[9] = set-up: method as in doi:10.1007/BF01922472, doi:10.1016/j.tet.2016.09.008; conditions: cited from earlier work
[10] = set-up: method as in doi:10.1007/BF03175531; conditions: cited from earlier work
[11] = system: MCF-7, HepG-2, NCI-H460 and SF-268; set-up: method as in PMID 18444265, PMID 28481313, PMID 27128202; conditions: four tumor cell lines and some others; cited from earlier work
[12] = system: Escherichia coli and Bacillus subtilis; set-up: method as in doi:10.1007/s10600-016-1745-x; conditions: cited from earlier work
Nrf2-ARE pathway = system: Nrf2-ARE pathway; set-up: method as in PMID 27450949; conditions: cited from earlier work
[13] = compounds 1-5, compound 10 µM 1 h, 6-OHDA 50 µM 1 h
[14] = compounds 1-5, compound 10 µM 1 h, PQ 500 µM 1 h
[15] = compounds 1-5, compound 10 µM 1 h, rotenone 10 µM 1 h

| SMILES | IC50 (MTT cytotoxicity assay) | EC50 [1] | DPPH Radical Scavenging 100 µM % of MeOH [1] | other results |
| --- | --- | --- | --- | --- |
| COc1cc(O)cc2c1C(=O)c1c(O)cc(C)cc1C2=O [Compound 12, questin] | > 100 µM | > 100 µM | 87.7 ± 2.4 % of MeOH | radical scavenging activity in cell-free assay ([1]; DPPH, up to 100 µM): did not show any significant DPPH radical scavenging; cytoprotective activity in 6-OHDA-induced PD cell model [2]: inactive; cytoprotective activity in PQ-induced PD cell model ([3]; compounds 6-12 at 1 µM, paraquat 500 µM): inactive; cytoprotective activity in rotenone-induced PD cell model ([4]; compounds 6-12 at 1 µM, rotenone 10 µM): moderate cytoprotective activity; influence on ROS level in 6-OHDA-treated cells ([5]; compounds 6-12, 1 µM (method: 10 µM), 6-OHDA 50 µM): significant in vitro anti-ROS activity; influence on ROS level in PQ-treated cells ([6]; compounds 6-12, 1 µM (method: 10 µM), PQ 500 µM): significant in vitro anti-ROS activity; influence on ROS level in rotenone-treated cells ([7]; compounds 6-12, 1 µM (method: 10 µM), rotenone 10 µM): significant in vitro anti-ROS activity; DPPH-radical scavenging activity [8]: DPPH-radical scavenging activity has been reported |
| C=CC(C)(C)c1[nH]c2ccccc2c1C1=C(OC)C(=O)C(c2c[nH]c3ccccc23)=C(OC)C1=O [Compound 9, asterriquinone C1] | 42.3 ± 1.45 µM | > 100 µM | 82.4 ± 1.7 % of MeOH |  |
| NCCc1cc(O)c(O)cc1O [Compound 6-OHDA, 6-hydroxydopamine, reference compound] |  |  |  | increase of intracellular ROS level by neurotoxin ([5]; 6-OHDA 50 µM alone, 1 h): 66% |
| C=CC(C)(C)c1[nH]c2ccccc2c1C1=C(OC)C(=O)C(c2c(C(C)(C)C=C)[nH]c3ccccc23)=C(OC)C1=O [Compound 8, asterriquinone B4] | 91.5 ± 1.87 µM | > 100 µM | 89.5 ± 0.9 % of MeOH |  |
| O=C1C[C@H](O)[C@@H](O)c2cc(O)cc(O)c21 [Compound 1, (3S,4S)-4-hydroxyscytalone] | > 100 µM | > 100 µM | 83.4 ± 1.2 % of MeOH | influence on ROS level in 6-OHDA-treated cells [5, 13]: decreased a ROS level; influence on ROS level in PQ-treated cells [6, 14]: decreased a ROS level; influence on ROS level in rotenone-treated cells [7, 15]: decreased a ROS level; phytotoxic activity [9]: phytotoxic; antinematodal activity [10]: antinematodal agents; cytotoxicity against tumor cell lines [11]: no activity was shown; antimicrobial activity [12]: weak antimicrobial activity |
| CC1CC(O)CC2(Cc3cc(O)cc(O)c3C(=O)O2)O1 (centres unmarked) [Compound 3, demethylcitreoviranol] | > 100 µM | > 100 µM | 91.2 ± 1.8 % of MeOH | influence on ROS level in PQ-treated cells [6, 14]: effective against ROS level enhancing; influence on ROS level in rotenone-treated cells [7, 15]: effective against ROS level enhancing; inducing of the Nrf2-ARE pathway (Nrf2-ARE pathway): weak inducing of the Nrf2-ARE pathway |
| COC1=C(c2c[nH]c3ccccc23)C(=O)C(OC)=C(c2c[nH]c3ccccc23)C1=O [Compound 11, asterriquinone D] | > 100 µM | > 100 µM | 85.6 ± 1.3 % of MeOH |  |
| O=C1C[C@H](O)[C@@H](O)c2cccc(O)c21 [Compound 2, (3S,4S)-4-hydroxy-6-dehydroxyscytalone] | > 100 µM | > 100 µM | 84.8 ± 3.2 % of MeOH | influence on ROS level in 6-OHDA-treated cells [5, 13]: decreased a ROS level; influence on ROS level in PQ-treated cells [6, 14]: decreased a ROS level; influence on ROS level in rotenone-treated cells [7, 15]: decreased a ROS level; phytotoxic activity [9]: phytotoxic; antinematodal activity [10]: antinematodal agents |
| COc1c2c(c(OC)c(O)c1-c1c[nH]c3ccccc13)C1(O)c3ccccc3NC1O2 (centres unmarked) [Compound 6, 3-(1H-indol-3-yl)-1,4-dimethoxy-5a,6-dihydro-10bH-benzofuro [2,3-b]indole-2,10b-diol] | > 100 µM | > 100 µM | 67.3 ± 3.9 % of MeOH |  |
| C=CC(C)(C)c1[nH]c2ccccc2c1C1=C(OC)C(=O)C(c2cn(C(C)(C)C=C)c3ccccc23)=C(OC)C1=O [Compound 7, Asterriquinone A3] | > 100 µM | > 100 µM | 88.9 ± 1.6 % of MeOH | cytoprotective activity in 6-OHDA-induced PD cell model [2]: weak cytoprotective activity |
| COC1=C(c2c[nH]c3ccccc23)C(=O)C(OC)=C(c2c[nH]c3c(CC=C(C)C)cccc23)C1=O [Compound 10, asterriquinone C2] | > 100 µM | > 100 µM | 91.3 ± 1.1 % of MeOH |  |
| C=C(C)[C@H]1Cc2c(ccc3c2O[C@@H]2COc4cc(OC)c(OC)cc4[C@@H]2C3=O)O1 [Rotenone, reference compound] |  |  |  | decrease of Neuro-2a cell viability by neurotoxin ([4]; rotenone 10 µM alone, 24 h): 48%; increase of intracellular ROS level by neurotoxin ([7]; rotenone 10 µM alone, 1 h): 79% |
| C[n+]1ccc(-c2cc[n+](C)cc2)cc1 [PQ, paraquat, reference compound] |  |  |  | decrease of Neuro-2a cell viability by neurotoxin ([3]; paraquat 500 µM alone, 24 h): 44%; increase of intracellular ROS level by neurotoxin ([6]; PQ 500 µM alone, 1 h): 48% |
